# Test results published in patent publication US9926354B2, “Amyloid precursor protein (APP) based Ã#-secretase inhibitor peptides, and methods of use” (UNIVERSITY OF SOUTH FLORIDA, priority 2014, dated 2018).
# No end group written: not given here.
# Legend:
# γ-secretase = conditions: Phase 3; cited from earlier work
# 5XFAD mice = assay: WB of BACE1, ADAM10, ADAM17, Akt, phospho-Akt and MBP in brain homogenates of 5XFAD mice; format: in vivo, mouse; conditions: vs TAT and PBS
# Method: 5XFAD Mice—Transgenic AD mice [5XFAD; B6SJL-Tg(APPSwF1Lon,PSEN1*M146L*L286V) 6799Vas/Mmjax] at 2.5 months of age were obtained from the Jackson Laboratory (Bar Harbor, Me., USA) and housed and maintained in the Animal Facility of College of Medicine at University of South Florida. The mice at 3.5 months of age were treated with TAT-APPsweBBP, TAT peptide (100 nM/kg in 100 μl PBS) or PBS (100 μl) intraperitioneally (i.p.) daily for eight consecutive weeks. The mice were subjected to behavioral testing after 8 week-treatment and euthanized for immunohistochemical, ELISA and WB analysis after completing behavioral tests. All experiments involving mice were in compliance with the U.S. Department of Health and Human Services Guide for the Care and Use of Laboratory Animals and in accordance with the guidelines of the USF Institutional Animal Care and Use Committee.
# Western Blotting (WB) and Analysis—WB analysis was performed as previously described (Modi et al., 2013; Tung et al., 2002). Briefly, the proteins from the various cell-free, cell and brain lysates or homogenates were electrophoretically separated using 10% bicine/tris gel (8 M urea) for proteins less than 5 kD or 10% tricine/tris gels for larger proteins. […]
# In addition to cognitive testing, neuronal APP proteolysis was also evaluated by ELISA and WB. […]
# [1] = format: in vivo, mouse; conditions: biotin-labeled, 100 nM/kg i.p. daily for 5 days, 4 hours after last injection, 5XFAD mice
# Method: In order to determine the BBB permeability of TAT-APPsweBBP, biotin-labeled TAT-APPsweBBP or APPsweBBP (100 nM/kg in 100 μl physiological saline) was intraperitoneally (i.p.) administered daily to 5XFAD mice at 2 months of age for 5 days (n=5, female). The mice were euthanized 4 hours after the last injection and then brain tissues were removed, sectioned and stained with anti-BACE1 and anti-biotin antibodies. Alexa Fluor® 594 donkey anti-rabbit IgG was used to detect the biotin signal and Alexa Fluor® 488 goat anti-mouse IgG was used to detect the BACE1 signal. All images were taken with an Olympus Fluoview FV1000 laser scanning confocal microscope. […] No noticeable differences in biotin distribution were observed between 5XFAD and WT control mice following either biotin-labeled TAT-APPsweBBP or APPsweBBP injection (data not shown).
# The hypothesis that TAT-APPsweBBP would more effectively penetrate the BBB compared with APPsweBBP alone was initially tested. 5XFAD mice at 2 months of age (n=5, female) were treated with biotin-labeled TAT-APPsweBBP or APPsweBBP (100 nM/kg, i.p.) daily for 5 days and then euthanized 4 hours after the last injection. Brain tissues were removed, sectioned, and stained with anti-BACE1 and anti-biotin antibodies. […] This highlights the importance of the membrane fusion fragment of the HIV-1 Tat protein (TAT) for cerebral delivery of APPsweBBP.
# BACE1 [2] = molecular target: T1, BACE1 (Homo sapiens, UniProt P56817); assay: BACE1 activity assay (FRET, cell-free); format: biochemical; set-up: purchased Pan Vera Co., Madison, Wis., USA
# Method: BACE1 Activity Assay—The BACE1 inhibiting activity of APP-based BACE1 site binding peptides were determined using a fluorescence resonance energy transfer (FRET) assay (Pan Vera Co., Madison, Wis., USA), which employs a recombinant baculovirus-expressed BACE1 and a specific substrate (Rh-[…]-quencher) that is based on the APPswe mutation. This specific peptide substrate becomes highly fluorescent upon enzymatic cleavage. A mixture of 10 μL of BACE1 (1.0 U/mL in 50 mM Tris, pH7.5, 10% glycerol), 10 μL of FRET-substrate, and 10 μL of the various APP-based BACE1 site binding peptides (final concentration 20 μM) were incubated for 90 minutes in the dark at room temperature. Then, 10 μL of BACE1 stop buffer (2.5 M sodium acetate) was added to the mixture. Fluorescence was read using a fluorometer, with excitation at 545 nm and emission at 585 nm.
# As a required enzyme for the generation of neurotoxic Aβ from APP, BACE1 is well established as an important mediator of AD β-amyloid pathology. As such, it has become an important target for new disease modifying therapeutics. However, since BACE1 also has important physiological roles, abolishment of the enzyme or its activity may lead to deleterious side effects as evidenced by numerous failed clinical trials discussed previously. […] Since previous studies have established a close relationship between α-helix structure and peptide-protein (or protein-protein) interactions (Azzarito, 2013; Rao et al., 2013), several APP based peptides were synthesized that might serve as a preferable substrate for BACE1. Importantly, these peptides were free of the Aβ-containing segment and, thus, cannot be amyloidogenic. In theory, these could be used to “hijack” the BACE1 processing of endogenous APP and lead to a decrease in cerebral Aβ. These BACE1 substrates and controls were incubated with recombinant BACE1 and percent of inhibition of the enzyme was calculated. […] These findings indicate that the α-helical TAT fusion domain may help to promote selective APPsweBBP proteolysis by BACE1, yielding substrate competition against human wild-type APP.
# BACE1 [3] = molecular target: T1, BACE1; set-up: purchased Pan Vera Co., Madison, Wis., USA; conditions: phase II clinical trial suspended June 2013; cited from earlier work
# T1 sequence (P56817 46-501): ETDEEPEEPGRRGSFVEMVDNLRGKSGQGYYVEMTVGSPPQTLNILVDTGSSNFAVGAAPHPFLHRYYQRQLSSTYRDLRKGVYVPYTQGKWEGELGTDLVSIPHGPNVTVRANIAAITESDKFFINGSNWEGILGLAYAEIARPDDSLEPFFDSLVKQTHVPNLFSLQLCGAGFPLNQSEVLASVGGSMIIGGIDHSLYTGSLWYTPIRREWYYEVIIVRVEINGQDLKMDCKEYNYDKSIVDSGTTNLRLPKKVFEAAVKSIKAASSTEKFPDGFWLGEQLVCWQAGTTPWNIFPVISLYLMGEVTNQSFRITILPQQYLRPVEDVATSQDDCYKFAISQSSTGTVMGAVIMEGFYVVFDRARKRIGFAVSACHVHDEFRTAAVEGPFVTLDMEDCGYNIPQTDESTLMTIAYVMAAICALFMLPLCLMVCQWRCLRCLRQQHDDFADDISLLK
compound,measurement,setting,value
CC(C)[C@H](O)C(=O)N[C@@H](C)C(=O)N[C@@H]1C(=O)N(C)CCc2ccccc21 [semagacestat],activities of daily living and cognition in treated patients,γ-secretase,worsened
YGRKKRRQRRREISEVNLDAEFR [APPsweBBP/TTD2],"total Akt, phosphorylated Akt and MBP expression levels in brain homogenates",5XFAD mice,did not differ
same,BBB penetration,[1],highly penetrated the BBB
same,% of inhibition (mean ± SD) of BACE1,"BACE1 [2]; peptide final concentration 20 μM, 90 minutes, room temperature, listed as TAT-APPswe^bBBP, 20 µM",93.23 ± 2.73%
same,inhibition at 20 µM,"BACE1 [2]; read-out: % of inhibition (mean ± SD) of BACE1, peptide final concentration 20 μM, 90 minutes, room temperature",> 90%
NC1=N[C@@]2(c3cc(NC(=O)c4ccc(F)cn4)ccc3F)COC[C@H]2CS1 [LY2886721],reason for trial suspension,BACE1 [3],possible liver toxicity
